In ChEMBL document CHEMBL4190378, “Synthesis and evaluation of new 2-chloro-4-aminopyrimidine and 2,6-dimethyl-4-aminopyrimidine derivatives as tubulin polymerization inhibitors” (Bioorg Med Chem Lett, 2018):
pIC50: −log10 of the molar value. Activity calls are given as the source filed them. The calls are words filed in the database; no cut-off is given here.

Assays:
HeLa [1] = experiment: Induction of apoptosis in human HeLa cells assessed as viable cells level at 50 nM incubated for 72 hrs by Annexin-V/FITC and propidium iodide staining based flow cytometry (reference value: 99.72%); format: functional
HeLa [2] = experiment: Induction of cell cycle arrest in human HeLa cells assessed as induction of disappearance of G2/M phase at 100 nM incubated for 48 hrs by propidium iodide staining based flow cytometry; format: functional
HeLa [3] = experiment: Induction of apoptosis in human HeLa cells assessed as early apoptotic cells level at 500 nM incubated for 72 hrs by Annexin-V/FITC and propidium iodide staining based flow cytometry (reference value: 0.16%); format: functional
HeLa [4] = experiment: Induction of apoptosis in human HeLa cells assessed as necrotic cells level at 50 nM incubated for 72 hrs by Annexin-V/FITC and propidium iodide staining based flow cytometry (reference value: 0.03%); format: functional
HeLa [5] = experiment: Induction of apoptosis in human HeLa cells assessed as necrotic cells level at 500 nM incubated for 48 hrs by Annexin-V/FITC and propidium iodide staining based flow cytometry (reference value: 0.03%); format: functional
HeLa [6] = experiment: Induction of apoptosis in human HeLa cells assessed as early apoptotic cells level at 100 nM incubated for 48 hrs by Annexin-V/FITC and propidium iodide staining based flow cytometry (reference value: 0.16%); format: functional
HeLa [7] = experiment: Induction of mitochondrial transmembrane potential loss in human HeLa cells at 50 nM incubated for 24 hrs by JC1 staining based fluorescence microscopy; format: functional, cell-based
HeLa [8] = experiment: Induction of mitochondrial transmembrane potential loss in human HeLa cells assessed as JC1 dye aggregates level at 50 nM incubated for 24 hrs by JC1 staining based flow cytometry (reference value: 95.85%); format: functional
HeLa [9] = experiment: Induction of apoptosis in human HeLa cells assessed as viable cells level at 100 nM incubated for 72 hrs by Annexin-V/FITC and propidium iodide staining based flow cytometry (reference value: 99.72%); format: functional
MDA-MB-231 = experiment: Antiproliferative activity against human MDA-MB-231 cells incubated for 48 hrs by MTT assay; format: functional, cell-based; settings: MDA-MB-231, 48 h
HeLa [10] = experiment: Induction of cell cycle arrest in human HeLa cells assessed as accumulation at subG1 phase at 500 nM incubated for 24 hrs by propidium iodide staining based flow cytometry; format: functional
HeLa [11] = experiment: Induction of apoptosis in human HeLa cells assessed as early apoptotic cells level at 500 nM incubated for 48 hrs by Annexin-V/FITC and propidium iodide staining based flow cytometry (reference value: 0.16%); format: functional
HeLa [12] = experiment: Induction of apoptosis in human HeLa cells assessed as viable cells level at 500 nM incubated for 72 hrs by Annexin-V/FITC and propidium iodide staining based flow cytometry (reference value: 99.72%); format: functional
HeLa [13] = experiment: Induction of apoptosis in human HeLa cells assessed as necrotic cells level at 500 nM incubated for 72 hrs by Annexin-V/FITC and propidium iodide staining based flow cytometry (reference value: 0.03%); format: functional
HeLa [14] = experiment: Induction of cell cycle arrest in human HeLa cells assessed as tetraploid peaks level at 50 nM incubated for 48 hrs by propidium iodide staining based flow cytometry; format: functional
HeLa [15] = experiment: Induction of apoptosis in human HeLa cells assessed as early apoptotic cells level at 50 nM incubated for 72 hrs by Annexin-V/FITC and propidium iodide staining based flow cytometry (reference value: 0.16%); format: functional
HeLa [16] = experiment: Induction of apoptosis in human HeLa cells assessed as late apoptotic cells level at 50 nM incubated for 48 hrs by Annexin-V/FITC and propidium iodide staining based flow cytometry (reference value: 0.02%); format: functional
HeLa [17] = experiment: Induction of apoptosis in human HeLa cells assessed as viable cells level at 50 nM incubated for 48 hrs by Annexin-V/FITC and propidium iodide staining based flow cytometry (reference value: 99.72%); format: functional
HeLa [18] = experiment: Induction of apoptosis in human HeLa cells assessed as early apoptotic cells level at 50 nM incubated for 48 hrs by Annexin-V/FITC and propidium iodide staining based flow cytometry (reference value: 0.16%); format: functional
HeLa [19] = experiment: Inhibition of tubulin polymerization in human HeLa cells assessed as morphological changes by measuring spindle microtubule dis-organisation at 0.5 uM incubated for 24 hrs by laser scanning confocal microscopy; format: functional, cell-based
HeLa [20] = experiment: Induction of apoptosis in human HeLa cells assessed as early apoptotic cells level at 100 nM incubated for 72 hrs by Annexin-V/FITC and propidium iodide staining based flow cytometry (reference value: 0.16%); format: functional
HeLa [21] = experiment: Induction of apoptosis in human HeLa cells assessed as late apoptotic cells level at 100 nM incubated for 72 hrs by Annexin-V/FITC and propidium iodide staining based flow cytometry (reference value: 0.02%); format: functional
HeLa [22] = experiment: Induction of apoptosis in human HeLa cells assessed as late apoptotic cells level at 50 nM incubated for 72 hrs by Annexin-V/FITC and propidium iodide staining based flow cytometry (reference value: 0.02%); format: functional
HeLa [23] = experiment: Induction of apoptosis in human HeLa cells assessed as late apoptotic cells level at 500 nM incubated for 72 hrs by Annexin-V/FITC and propidium iodide staining based flow cytometry (reference value: 0.02%); format: functional
HeLa [24] = experiment: Induction of cell cycle arrest in human HeLa cells assessed as accumulation at G2/M phase at 100 nM incubated for 24 hrs by propidium iodide staining based flow cytometry; format: functional
HeLa [25] = experiment: Induction of apoptosis in human HeLa cells assessed as late apoptotic cells level at 500 nM incubated for 48 hrs by Annexin-V/FITC and propidium iodide staining based flow cytometry (reference value: 0.02%); format: functional
HeLa [26] = experiment: Induction of cell cycle arrest in human HeLa cells assessed as induction of disappearance of G2/M phase at 500 nM incubated for 48 hrs by propidium iodide staining based flow cytometry; format: functional
HeLa [27] = experiment: Induction of cell cycle arrest in human HeLa cells assessed as tetraploid peaks level at 50 nM incubated for 24 hrs by propidium iodide staining based flow cytometry; format: functional
HeLa [28] = experiment: Induction of apoptosis in human HeLa cells assessed as viable cells level at 500 nM incubated for 48 hrs by Annexin-V/FITC and propidium iodide staining based flow cytometry (reference value: 99.72%); format: functional
A549 = experiment: Antiproliferative activity against human A549 cells incubated for 48 hrs by MTT assay; format: functional, cell-based; settings: A549, 48 h
HeLa [29] = experiment: Induction of apoptosis in human HeLa cells assessed as necrotic cells level at 50 nM incubated for 48 hrs by Annexin-V/FITC and propidium iodide staining based flow cytometry (reference value: 0.03%); format: functional
HepG2 = experiment: Antiproliferative activity against human HepG2 cells incubated for 48 hrs by MTT assay; format: functional, cell-based; settings: HepG2, 48 h
HeLa [30] = experiment: Induction of mitochondrial transmembrane potential loss in human HeLa cells assessed as JC1 dye aggregates level at 100 nM incubated for 24 hrs by JC1 staining based flow cytometry (reference value: 95.85%); format: functional
HeLa [31] = experiment: Inhibition of tubulin polymerization in human HeLa cells assessed as morphological changes by measuring narrowing of nucleus at 0.5 uM incubated for 24 hrs by laser scanning confocal microscopy; format: functional, cell-based
HeLa [32] = experiment: Induction of apoptosis in human HeLa cells assessed as necrotic cells level at 100 nM incubated for 72 hrs by Annexin-V/FITC and propidium iodide staining based flow cytometry (reference value: 0.03%); format: functional

pIC50 (MDA-MB-231): 5.96
pIC50 (A549): 6.95
pIC50 (HepG2): 6.95
SMILES: COc1ccc(N(C)c2cc(C)nc(C)n2)cc1O
Activity (HeLa [1]): 82.18%
Activity (HeLa [2]): Active
Activity (HeLa [3]): 66.08%
Activity (HeLa [4]): 0.6%
Activity (HeLa [5]): 0.29%
Activity (HeLa [6]): 23.16%
Activity (HeLa [7]): Active
Activity (HeLa [8]): 88.35%
Activity (HeLa [9]): 65.2%
Activity (HeLa [10]): Active
Activity (HeLa [11]): 69.81%
Activity (HeLa [12]): 11.77%
Activity (HeLa [13]): 3.54%
Activity (HeLa [14]): 38.7%
Activity (HeLa [15]): 9.78%
Activity (HeLa [16]): 0%
Activity (HeLa [17]): 89.56%
Activity (HeLa [18]): 10.44%
inhibition (HeLa [19]): Active
Activity (HeLa [20]): 21.09%
Activity (HeLa [21]): 11.63%
Activity (HeLa [22]): 7.44%
Activity (HeLa [23]): 18.61%
Activity (HeLa [24]): 39.6%
Activity (HeLa [25]): 0.09%
Activity (HeLa [26]): Active
Activity (HeLa [27]): 28.3%
Activity (HeLa [28]): 29.81%
Activity (HeLa [29]): 0.01%
Activity (HeLa [30]): 70.71%
inhibition (HeLa [31]): Active
Activity (HeLa [32]): 2.08%
